Test results from patent US7407990B2, “Therapeutic Agents” (Knoll GmbH, priority 1999, dated 2008).

Tested on: male rhesus monkeys (Macaca mulatta)
Experiment: Cocaine discrimination testing (Study 1), pretreatment protocol
Format: in vivo
Conditions: cocaine alone
Description: Subjects: The subjects are four male rhesus monkeys (Macaca mulatta), weighing 5.7-8.1 kg and maintained on a diet of 3-4 monkey biscuits and one piece of fresh fruit per day. During the week, all food is delivered after the experimental session, whereas at weekends, food is delivered between 9 a.m. and noon. Water is freely available at all times. The monkeys are housed in a humidity and temperature controlled room with a 12 h light-dark cycle (lights on from 7 a.m. to 7 p.m.). Apparatus: Each monkey is housed individually in a well-ventilated, stainless steel chamber (56×71×69 cm) which includes an operant panel (28×28 cm) mounted on the front wall. Three response keys are arranged in a horizontal row 3.2 cm from the top of the operant panel. Each key can be transilluminated by red or green stimulus lights (Superbright LEDs). An externally mounted pellet dispenser delivers 1 g fruit-flavoured food pellets to a food receptacle beneath the operant response panel. A computer, located in a separate room, controls the operant panels and data collection. […]
During each response period, 3 dependent variables are determined: • 1) Percent injection-appropriate responding prior to delivery of the first reinforcer. • 2) Percent injection-appropriate responding for the entire response period • 3) Response Rate.
Monkeys meeting the following criteria during the training day immediately proceeding the test day and in at least 6 of 7 consecutive training sessions before this are used for discrimination testing: • 1) the percent injection-appropriate responding prior to delivery of the first reinforcer is ≧80% for all cycles; • 2) the percent injection-appropriate responding for the entire cycle is ≧90% for all cycles; • 3) Response rates during saline training cycles are >0.5 responses per second. […] In this protocol, a cumulative dose-effect curve for cocaine (0.013-1.3 mg/kg) is determined either alone or following pretreatment with the test compound, which is administered 20 min before the first dose of cocaine. […]

COC(=O)[C@H]1[C@@H](OC(=O)c2ccccc2)C[C@@H]2CC[C@H]1N2C.Cl [cocaine, Cocaine hydrochloride]
response rates (1.3 mg/kg): usually decreases response rates
cocaine-appropriate responding (cumulative 0.013-1.3 mg/kg, all four monkeys): dose-dependent increase in cocaine-appropriate responding
substitution for training stimulus (training dose 0.4 mg/kg, all monkeys): Complete substitution
